Like-named read-outs stand apart in the source and are kept apart here.
Tests used:
[1] = Stability of the analytes in rat plasma samples under storage conditions; type: physicochemical; conditions: n = 6
Method: The bioanalytical method validation was evaluated for specificity, linearity, sensitivity, precision and accuracy, recovery, matrix effect, and stability to ensure compliance with the U.S. Food and Drug Administration (FDA) guidance on precise quantitative analysis ([Center for Drug Evaluation and Research of the U.S., 2018]). The assessment of specificity was conducted by comparing the chromatograms obtained from blank plasma, blank plasma spiked with the target components, and samples gathered following the oral administration of OS extract. Calibration curves were constructed by plotting the ratio for the peak area of the analyte to IS versus the concentration, with 1/x^2 serving as the weighting factor. The lower limit of quantification (LLOQ) was defined as the concentration at which a signal to noise ratio of […] 10 was achievable. The evaluation of precision and accuracy involved the analysis of six QC samples, both within a single day and over 3 consecutive days. Accuracy was expressed as the relative error (RE), whereas precision was gauged via relative standard deviation (RSD). Extraction recovery was ascertained by juxtaposing the responses of analytes in extracted samples against those in samples that were spiked post-extraction. The matrix effect was scrutinized by determining the ratio of the responses of the analytes in post-extraction spiked samples to those in the mixed standard solution. The stability of the analytes in plasma samples was explored under diverse conditions: encompassing a 12-h period in an autosampler, a 4-h interval at room temperature, three cycles of freezing–thawing, and a 7-day duration at −80 °C.
The retention times of the analyte peaks were consistent with those in the spiked samples. […] The LLOQs for chrysin, chrysin-7-O-β-D-glucuronide, hispidulin, wogonoside, quercetin, quercetin-7-O-β-D-glucoside, baicalin, baicalein, acacetin, oroxin A, oroxin B, oroxylin A, oroxylin A-7-O-β-D-glucuronide, apigenin, and scutellarein were 1.0, 2.0, 1.0, 0.3, 1.0, 0.1, 9.0, 6.0, 0.3, 6.0, 4.0, 1.0, 2.0, 0.5, and 0.3 ng/mL, respectively. In Supplementary Table S2, the RE for accuracy is between −13.77% and 12.55%, and the RSD for precision is below 14.55% (both intra- and inter-day). […] The matrix effect varied from 60.15% to 115.53%, with RSD values below 10.54%. In Supplementary Table S4, the RSD values for stability of the analytes are found to be lower than 13.98%, meaning that these components were stable under the following conditions: encompassing a 12-h period in an autosampler, a 4-h interval at room temperature, three cycles of freezing and thawing, and a 7-day duration at −80 °C.

[2] = Pharmacokinetic study in rats after oral administration of OS extract (UHPLC-QqQ-MS/MS of plasma); type: in vivo, rat; conditions: for concentration at 0.5 h / AUC(0-inf) / AUC(0-t) / Cmax / Tmax / half-life: male
Method: The UHPLC-QqQ-MS/MS system consisted of a 1290 UHPLC and a 6470 mass spectrometer (Agilent Technologies). Chromatographic separation was realized on utilizing an ACQUITY UPLC BEH C18 column (2.1 × 100 mm, 1.7 μm) maintained at 35 °C. The mobile phase consisting of 0.1% formic acid in water (A) and acetonitrile (B) was utilized with the elution program set at 0 min–1 min, 5% B–30% B; 1 min–4 min, 30% B– 50% B; 4 min–8 min, and 50% B–90% B. The injection volume was 5 μL, and the flow rate was 0.3 mL/min. The mass spectrometry parameters in the negative ion mode, gas temperature, flow rate, and nebulizer pressure were 300 °C, 7 L/min, and 35 psi, respectively. The mass spectra properties of the 15 analytes and the IS are illustrated in Table 1.
To 100 μL of the plasma sample, 20 μL of methanol, 20 μL of IS solution (methylparaben, 1 μg/mL), and 5 μL of formic acid were added and vortexed for a duration of 2 min. Subsequently, the mixture underwent extraction with 800 μL of acetonitrile for 3 min. Following 10 min of centrifugation at 12,000 g, the supernatant was collected and evaporated to dryness under N2 to obtain the residue. Finally, the residue was reconstituted in 50% methanol (100 μL) and utilized for analysis.
Before initiating the study, six male SD rats underwent a 12-h fasting period, during which they were granted unrestricted access to water. Then, the rats were administered an oral dose of 3 g/kg of the OS extract, which had been dissolved in 0.5% CMC-Na aqueous solution. Blood samples, approximately 200 μL each, were collected at various time points: before administration and at 0.03, 0.08, 0.17, 0.25, 0.5, 0.75, 1, 2, 4, 6, 8, 10, 12, 24, 36, and 48 h post-administration. Following 10 min of centrifugation at 6,000 g, the resultant samples were stored at −80 °C.
The developed method was effectively applied to study the pharmacokinetics in rats following oral administration of the OS extract. […] This was likely due to their low concentrations in the OS extract. Ultimately, nine components (chrysin, chrysin-7-O-β-D-glucuronide, baicalin, baicalein, oroxin A, oroxin B, oroxylin A, oroxylin A-7-O-β-D-glucuronide, and scutellarein) were successfully fitted with pharmacokinetic parameters. The average plasma concentration–time profiles of these substances are depicted in Figure 3. […] All data were presented as the mean ± standard deviation (Mean ± SD).

[3] = spiked concentration 1600 ng/mL
[4] = SD, 3 g/kg, rat plasma collected 0.5 h after oral administration of the OS extract, read-out: Concentration printed in MRM chromatogram of plasma sample (Figure 2C)
[5] = spiked concentration 6400 ng/mL

SMILES: COc1c(O)cc2oc(-c3ccccc3)cc(=O)c2c1O [Oroxylin A, oroxylin A]
- Measured, -80°C for 7 days ([1]; spiked concentration 10 ng/mL): 10.45 ± 0.29 ng/mL
- Measured, Autosampler for 12 h ([1]; spiked concentration 10 ng/mL): 10.51 ± 1.15 ng/mL
- Measured, Room temperature for 4 h ([1]; spiked concentration 10 ng/mL): 10.16 ± 0.90 ng/mL
- Measured, Three freeze-thaw cycles ([1]; spiked concentration 10 ng/mL): 10.69 ± 0.70 ng/mL
- Measured, -80°C for 7 days ([1]; spiked concentration 100 ng/mL): 92.00 ± 7.39 ng/mL
- Measured, Autosampler for 12 h ([1]; spiked concentration 100 ng/mL): 90.43 ± 9.04 ng/mL
- Measured, Room temperature for 4 h ([1]; spiked concentration 100 ng/mL): 92.23 ± 5.62 ng/mL
- Measured, Three freeze-thaw cycles ([1]; spiked concentration 100 ng/mL): 88.86 ± 4.67 ng/mL
- Measured, -80°C for 7 days [1, 3]: 1720.89 ± 130.14 ng/mL
- Measured, Autosampler for 12 h [1, 3]: 1797.17 ± 87.55 ng/mL
- Measured, Room temperature for 4 h [1, 3]: 1790.22 ± 78.72 ng/mL
- Measured, Three freeze-thaw cycles [1, 3]: 1733.57 ± 149.41 ng/mL
- concentration at 0.5 h ([2]; SD, rat, in vivo, po): 165 ng/mL
- AUC(0-inf) ([2]; SD, rat, in vivo, po, 3 g/kg): 3010 ng·h/mL
- AUC(0-t) ([2]; SD, rat, in vivo, po, 3 g/kg): 2840 ng·h/mL
- Cmax ([2]; SD, rat, in vivo, po, 3 g/kg): 512 ± 179 ng/mL
- Tmax ([2]; SD, rat, in vivo, po, 3 g/kg): 0.25 ± 0.00 h
- half-life ([2]; SD, rat, in vivo, po, 3 g/kg): 7.7 ± 0.97 h

SMILES: COc1c(O[C@@H]2O[C@H](C(=O)O)[C@@H](O)[C@H](O)[C@H]2O)cc(O)c2c(=O)cc(-c3ccccc3)oc12 [Wogonoside, wogonoside]
- Measured, -80°C for 7 days ([1]; spiked concentration 2 ng/mL): 1.78 ± 0.17 ng/mL
- Measured, Autosampler for 12 h ([1]; spiked concentration 2 ng/mL): 2.07 ± 0.26 ng/mL
- Measured, Room temperature for 4 h ([1]; spiked concentration 2 ng/mL): 1.82 ± 0.14 ng/mL
- Measured, Three freeze-thaw cycles ([1]; spiked concentration 2 ng/mL): 1.86 ± 0.09 ng/mL
- Measured, -80°C for 7 days ([1]; spiked concentration 20 ng/mL): 22.33 ± 0.89 ng/mL
- Measured, Autosampler for 12 h ([1]; spiked concentration 20 ng/mL): 22.77 ± 1.13 ng/mL
- Measured, Room temperature for 4 h ([1]; spiked concentration 20 ng/mL): 19.87 ± 0.76 ng/mL
- Measured, Three freeze-thaw cycles ([1]; spiked concentration 20 ng/mL): 18.01 ± 1.31 ng/mL
- Measured, -80°C for 7 days ([1]; spiked concentration 320 ng/mL): 287.53 ± 32.71 ng/mL
- Measured, Autosampler for 12 h ([1]; spiked concentration 320 ng/mL): 307.85 ± 37.80 ng/mL
- Measured, Room temperature for 4 h ([1]; spiked concentration 320 ng/mL): 327.84 ± 23.82 ng/mL
- Measured, Three freeze-thaw cycles ([1]; spiked concentration 320 ng/mL): 310.87 ± 20.44 ng/mL
- concentration at 0.5 h [2, 4]: 11 ng/mL
- Plasma levels ([2]; rat plasma after oral OS extract): too weak to obtain comprehensive pharmacokinetic curves

SMILES: O=c1cc(-c2ccccc2)oc2cc(O[C@@H]3O[C@H](CO)[C@@H](O)[C@H](O)[C@H]3O)c(O)c(O)c12 [Oroxin A, oroxin A]
- Measured, -80°C for 7 days ([1]; spiked concentration 40 ng/mL): 41.12 ± 0.77 ng/mL
- Measured, Autosampler for 12 h ([1]; spiked concentration 40 ng/mL): 39.49 ± 3.13 ng/mL
- Measured, Room temperature for 4 h ([1]; spiked concentration 40 ng/mL): 38.81 ± 2.31 ng/mL
- Measured, Three freeze-thaw cycles ([1]; spiked concentration 40 ng/mL): 39.17 ± 2.11 ng/mL
- Measured, -80°C for 7 days ([1]; spiked concentration 400 ng/mL): 385.78 ± 15.57 ng/mL
- Measured, Autosampler for 12 h ([1]; spiked concentration 400 ng/mL): 419.46 ± 28.69 ng/mL
- Measured, Room temperature for 4 h ([1]; spiked concentration 400 ng/mL): 388.37 ± 19.15 ng/mL
- Measured, Three freeze-thaw cycles ([1]; spiked concentration 400 ng/mL): 395.82 ± 21.75 ng/mL
- Measured, -80°C for 7 days [1, 5]: 6200.94 ± 362.67 ng/mL
- Measured, Autosampler for 12 h [1, 5]: 6572.01 ± 389.34 ng/mL
- Measured, Room temperature for 4 h [1, 5]: 6516.27 ± 414.24 ng/mL
- Measured, Three freeze-thaw cycles [1, 5]: 6021.13 ± 378.88 ng/mL
- concentration at 0.5 h [2, 4]: 1300 ng/mL
- AUC(0-t) ([2]; rat plasma, oral 3 g/kg OS extract, n = 6, mean ± SD, read-out: AUC(0-t)): 3990 ng·h/mL
- AUC(0-inf) ([2]; rat plasma, oral 3 g/kg OS extract, n = 6, mean ± SD, read-out: AUC(0-∞)): 4060 ng·h/mL
- Cmax ([2]; rat plasma, oral 3 g/kg OS extract, n = 6, mean ± SD, read-out: Cmax): 2890 ng/mL
- half-life ([2]; rat plasma, oral 3 g/kg OS extract, n = 6, mean ± SD, read-out: T1/2 (converted)): 3.42 ± 2.51 h
- Tmax ([2]; rat plasma, oral 3 g/kg OS extract, n = 6, mean ± SD, read-out: Tmax): 0.25 h
